Data from article PMC8355244, “A fragment-based approach identifies an allosteric pocket that impacts malate dehydrogenase activity” (Communications Biology, 2021).
Values joined by “and” are separate entries in the source; they are usually repeats but may differ in a detail not shown here. Equal entries are not always repeated.

Molecular target: T1, PfMDH (Plasmodium falciparum, UniProt Q6VVP7)
T1 construct: The full-length WT PfMDH gene was cloned into pETM-13; made in house; host or cells: E. coli Rosetta 2 (DE3) pLysS
Assay: Thermal shift assay (TSA)
Type: binding
Settings: for TSA melting curve raw signal: triplicate columns; for TSA melting curve raw fluorescence signal: three replicate columns
Procedure: The TSA experiment was conducted in a BioRad CSX 96 (Biorad). Each reaction consisted of 1 mM of compound (100 mM stock in 100% (v/v) DMSO) and 10 μM PfMDH in 100 mM Na–phosphate buffer pH 7.4, 400 mM NaCl, and 10× Sypro Orange (Invitrogen) for a total volume of 100 μl. Control experiments were performed with 1% (v/v) DMSO. Inflection points were determined using BioRad CFX96™ control software. Generally, a temperature increase of over 1 °C is interpreted as a result of the stabilization of the protein-ligand interaction. On the contrary, a negative shift is considered a destabilization caused by the fragment.

T1 sequence (Q6VVP7 entry or part of it): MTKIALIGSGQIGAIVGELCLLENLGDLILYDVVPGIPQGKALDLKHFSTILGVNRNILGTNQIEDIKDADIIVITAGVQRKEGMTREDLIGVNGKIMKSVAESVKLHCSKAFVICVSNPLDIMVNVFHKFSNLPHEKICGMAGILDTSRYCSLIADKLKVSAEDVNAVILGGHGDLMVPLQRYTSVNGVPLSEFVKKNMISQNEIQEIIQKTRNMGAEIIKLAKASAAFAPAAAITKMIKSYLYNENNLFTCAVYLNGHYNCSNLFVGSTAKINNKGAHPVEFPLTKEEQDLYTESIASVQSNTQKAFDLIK

Question: How did the “TSA melting curve raw signal” value (Temperature 42) turn out when `Cc1ccc(-c2csc(N)n2)cc1C` [compound 5a] was run?
Answer: The value was 3988,71833711846 and 3998,73387424263 and 4016,77538143681.

Question: And the “TSA melting curve raw signal” value (Temperature 42.5)?
Answer: The value was 4021,21607007206 and 4019,84430210471 and 4054,60967755587.

Question: What about the “TSA melting curve raw signal” value (Temperature 43) of the same molecule?
Answer: The value was 4057,66089779623 and 4044,0111947974 and 4095,39361771176.

Question: And the “TSA melting curve raw signal” value (Temperature 43.5)?
Answer: The value was 4098,50799079596 and 4071,35680793258 and 4139,49703067488.

Question: What about the “TSA melting curve raw signal” value (Temperature 44) of the same molecule?
Answer: The value was 4143,7029279742 and 4102,93490558282 and 4187,23267299696.

Question: And the “TSA melting curve raw signal” value (Temperature 44.5)?
Answer: Its value is 4193,76415817757 and 4139,12758979339.

Question: What about the “TSA melting curve raw fluorescence signal” value (Temperature 73.5) of the same molecule?
Answer: The value was 6299,79889324093 and 6231,78067625527 and 6109,60097267495.

Question: What about the “TSA melting curve raw fluorescence signal” value (Temperature 74) of the same molecule?
Answer: Its value is 6263,77685489112 and 6199,60301810331 and 6079,58574419186.

Question: What about the “TSA melting curve raw fluorescence signal” value (Temperature 74.5) of the same molecule?
Answer: Its value is 6227,81230039343 and 6168,07294306546 and 6050,3648537714.

Question: What about the “TSA melting curve raw fluorescence signal” value (Temperature 75) of the same molecule?
Answer: The value was 6191,69391237371 and 6136,98106377792 and 6022,22137708791.

Question: What about the “TSA melting curve raw fluorescence signal” value (Temperature 75.5) of the same molecule?
Answer: The value was 6155,53394325777 and 6106,56217628376 and 5994,69779058543.

Question: What about the “TSA melting curve raw fluorescence signal” value (Temperature 76) of the same molecule?
Answer: Its value is 6119,21897947977 and 6076,80705748139 and 5967,4462924716.

Question: And the “TSA melting curve raw fluorescence signal” value (Temperature 76.5)?
Answer: Its value is 6082,92591216179 and 6047,4145361092 and 5940,31651314489.

Question: What about the “TSA melting curve raw fluorescence signal” value (Temperature 77) of the same molecule?
Answer: The value was 6046,49720538895 and 6018,41753205572 and 5913,27495012434.

Question: What about the “TSA melting curve raw fluorescence signal” value (Temperature 77.5) of the same molecule?
Answer: Its value is 6010,50289688288 and 5990,00501222795 and 5885,78980691114.

Question: And the “TSA melting curve raw fluorescence signal” value (Temperature 78)?
Answer: The value was 5974,68191071035 and 5961,9413128759 and 5858,29554785782.

Question: And the “TSA melting curve raw fluorescence signal” value (Temperature 78.5)?
Answer: Its value is 5938,84446109596 and 5933,98335794503 and 5831,1047548002.

Question: And the “TSA melting curve raw fluorescence signal” value (Temperature 79)?
Answer: The value was 5902,97195912381 and 5906,58331664414 and 5804,43914738993.

Question: What about the “TSA melting curve raw fluorescence signal” value (Temperature 79.5) of the same molecule?
Answer: Its value is 5867,41053847852 and 5879,50936774398 and 5777,86836204367.

Question: And the “TSA melting curve raw fluorescence signal” value (Temperature 80)?
Answer: The value was 5831,53193853565 and 5852,76984504973 and 5751,94689709266.

Question: What about the “TSA melting curve raw fluorescence signal” value (Temperature 80.5) of the same molecule?
Answer: Its value is 5795,82019427429 and 5826,58557638173 and 5726,2038969697.

Question: What about the “TSA melting curve raw fluorescence signal” value (Temperature 81) of the same molecule?
Answer: Its value is 5760,30095342266 and 5801,18894213247 and 5700,36557719877.

Question: What about the “TSA melting curve raw fluorescence signal” value (Temperature 81.5) of the same molecule?
Answer: The value was 5725,24994225392 and 5776,10279717956 and 5674,32010159986.

Question: What about the “TSA melting curve raw fluorescence signal” value (Temperature 82) of the same molecule?
Answer: The value was 5690,32532905286 and 5751,3477386949 and 5648,72005725552.

Question: What about the “TSA melting curve raw fluorescence signal” value (Temperature 82.5) of the same molecule?
Answer: Its value is 5655,78245522646 and 5726,77680893998 and 5623,03287837809.

Question: What about the “TSA melting curve raw fluorescence signal” value (Temperature 83) of the same molecule?
Answer: The value was 5621,55211537617 and 5702,38981297221 and 5597,5741352507.

Question: What about the “TSA melting curve raw fluorescence signal” value (Temperature 83.5) of the same molecule?
Answer: The value was 5587,90100461892 and 5677,89080987549 and 5572,13715933177.

Question: And the “TSA melting curve raw fluorescence signal” value (Temperature 84)?
Answer: Its value is 5554,68764858678 and 5653,54864689514 and 5546,61264074355.

Question: And the “TSA melting curve raw fluorescence signal” value (Temperature 84.5)?
Answer: The value was 5522,12797974512 and 5629,23115607744 and 5520,89063035555.

Question: What about the “TSA melting curve raw fluorescence signal” value (Temperature 85) of the same molecule?
Answer: Its value is 5490,3943722303 and 5605,20109514197 and 5495,02372927899.

Question: What about the “TSA melting curve raw fluorescence signal” value (Temperature 85.5) of the same molecule?
Answer: The value was 5459,26859138261 and 5580,93868945953 and 5469,03090217972.

Question: And the “TSA melting curve raw fluorescence signal” value (Temperature 86)?
Answer: The value was 5428,58283846294 and 5556,95201224284 and 5443,19308365262.

Question: And the “TSA melting curve raw fluorescence signal” value (Temperature 86.5)?
Answer: Its value is 5398,09747442684 and 5532,99737771582 and 5417,41903670835.

Question: And the “TSA melting curve raw fluorescence signal” value (Temperature 87)?
Answer: Its value is 5367,90135308437 and 5508,96565185791 and 5391,30496945424.

Question: And the “TSA melting curve raw fluorescence signal” value (Temperature 87.5)?
Answer: The value was 5337,34531670684 and 5484,37750610498 and 5364,66521912081.

Question: And the “TSA melting curve raw fluorescence signal” value (Temperature 88)?
Answer: The value was 5306,8503048902 and 5459,61999119873 and 5337,15073673697.

Question: And the “TSA melting curve raw fluorescence signal” value (Temperature 88.5)?
Answer: Its value is 5276,4616972104 and 5434,08494262397 and 5308,68599271431.

Question: And the “TSA melting curve raw fluorescence signal” value (Temperature 89)?
Answer: The value was 5246,27326568905 and 5407,79046445709 and 5279,36241888361.

Question: What about the “TSA melting curve raw fluorescence signal” value (Temperature 89.5) of the same molecule?
Answer: The value was 5216,45044474314 and 5380,95498835197 and 5249,45359350464.

Question: What about the “TSA melting curve raw fluorescence signal” value (Temperature 90) of the same molecule?
Answer: The value was 5187,98991931244.
